Experimental data published in publication PMC5943490, “Altered Expression of the Malate-Permeable Anion Channel OsALMT4 Reduces the Growth of Rice Under Low Radiance” (Frontiers in Plant Science, 2018).

Columns and labels:
[1] = target: T1, OsALMT4 (Oryza sativa, UniProt Q0JPI1); assay: malate efflux from intact OX5 seedlings, concentration series; settings: read-out: Ki (half maximum inhibition)
T1 construct: gene Os01g0221600; full-length, constitutively over-expressed in transgenic rice (homozygous line OX5)
T1 sequence (Q0JPI1 1-524): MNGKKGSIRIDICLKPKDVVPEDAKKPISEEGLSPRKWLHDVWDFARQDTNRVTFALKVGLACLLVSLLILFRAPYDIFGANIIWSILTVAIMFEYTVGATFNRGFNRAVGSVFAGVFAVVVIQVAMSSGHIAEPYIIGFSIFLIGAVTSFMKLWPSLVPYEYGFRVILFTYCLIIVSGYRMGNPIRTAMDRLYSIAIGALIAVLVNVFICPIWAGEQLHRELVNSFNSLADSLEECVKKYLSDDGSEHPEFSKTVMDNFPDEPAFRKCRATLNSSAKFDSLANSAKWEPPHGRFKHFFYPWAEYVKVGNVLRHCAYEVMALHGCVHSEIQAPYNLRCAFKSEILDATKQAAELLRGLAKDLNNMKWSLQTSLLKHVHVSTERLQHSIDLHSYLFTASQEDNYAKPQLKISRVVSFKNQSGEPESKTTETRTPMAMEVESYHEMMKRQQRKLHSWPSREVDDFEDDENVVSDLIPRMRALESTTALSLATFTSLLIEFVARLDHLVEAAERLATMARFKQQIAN

[2] = target: T1, OsALMT4; assay: malate efflux from intact OX5 and OX5_null seedlings; settings: pH 5.6; transported anion, stereo not told
[3] = target: T1, OsALMT4; assay: malate efflux from intact OX5 seedlings; settings: read-out: malate efflux, % of control at 100 μM

O=C(O)c1ccccc1O [SA, salicylic acid]
IC50 [1]: 25 µM

O=C(O)C[C@H](O)C(=O)O [malate]
malate efflux from intact OX5 and OX5_null seedlings [2]: SA treatment effectively inhibited malate efflux via OsALMT4 in the transgenic OX lines

O=C(O)c1cccnc1Nc1cccc(C(F)(F)F)c1 [niflumate]
remaining activity at 100 µM [3]: < 20%
